According to PubChem BioAssay (NCI):
“And” between values parts separate entries of the source, which are not always exact repeats. Equal entries are not always repeated.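 Method: 48-hour compound exposure of cells in 96-well plates, five concentrations, linear interpolation of endpoints. GI50 is the concentration that inhibits growth by half. TGI denotes the concentration required for complete inhibition of growth.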

Key:
Assay in all cases: NCI anticancer screen, dose series, 48 h
HOP-62 NSCLC = test system: HOP-62 NSCLC
HT29 colon = test system: HT29 colon
IGROV1 ovarian = test system: IGROV1 ovarian
MALME-3M melanoma = test system: MALME-3M melanoma
RXF 393 renal = test system: RXF 393 renal
SF-295 CNS = test system: SF-295 CNS
HS 578T breast = test system: HS 578T breast
OVCAR-4 ovarian = test system: OVCAR-4 ovarian
SNB-75 CNS = test system: SNB-75 CNS
CAKI-1 renal = test system: CAKI-1 renal

SMILES	TGI (HOP-62 NSCLC) [µM]	TGI (HT29 colon) [µM]	TGI (IGROV1 ovarian) [µM]	TGI (MALME-3M melanoma)	TGI (RXF 393 renal) [µM]	TGI (SF-295 CNS) [µM]	GI50 (HS 578T breast)	TGI (HS 578T breast) [µM]	GI50 (MALME-3M melanoma)	TGI (OVCAR-4 ovarian) [µM]	GI50 (RXF 393 renal)	GI50 (SNB-75 CNS)	TGI (SNB-75 CNS) [µM]	TGI (CAKI-1 renal) [µM]
C#CCOC(=O)C=[N+]=[N-]	> 10	> 10	> 10	> 10 µM	> 10	> 10	–	–	–	–	–	–	–	–
CC(C)(C)OC(=O)C1C(=O)NC(=O)CC1C(OCc1ccccc1)C(OCc1ccccc1)C(COCc1ccccc1)OCc1ccccc1 (stereo unspecified)	–	> 75	> 100	> 100 µM and 73 µM	> 100	> 100	> 100 µM and 16.2 µM	> 100	> 100 µM and 15.7 µM	> 100	33.2 µM and 14.4 µM	26 µM and > 7.5 µM	> 100	–
CCCCCCCCCCCCCOCCOCCOCCCCC(O)CCCCCCCCCC1=C[C@H](C)OC1=O (stereo partly specified)	> 100	57.6	37.6	–	47.5	29.2	–	47.6	–	71.9	–	–	> 100	44.4
CCN(CC)c1c(-c2c(OC(C)C)c(=O)c2=O)c(=O)n2ccsc2c1OC(C)=O	> 100	> 100	> 100	> 100 µM	–	> 100	–	> 100	–	> 100	–	–	> 100	> 100
CCOC(=O)c1nc2ccccc2nc1Nc1cc(OC)c(OC)c(OC)c1	> 100	> 100	> 100	> 100 µM	–	> 100	–	> 100	–	> 100	–	–	> 100	> 100
c1ccc(C/C(=N\Nc2nc3ccccc3[nH]2)c2ccccn2)cc1	12.6	5.23	0.327	2.23 µM	1.58	6.78	–	20	–	10.4	–	–	–	1.52
CCOc1cc2c(cc1OC)c[n+](C)c1c3cc(OC)c(OC)cc3ccc21	> 100	> 100	> 100	> 100 µM	73.5	> 100	–	–	–	> 100	–	–	–	> 100
C[C@]12CCC(=O)C=C1CC[C@@H]1[C@@H]2CC[C@]2(C)C(=O)/C(=C/c3ccc([N+](=O)[O-])cc3)C[C@@H]12	> 100	> 100	> 100	> 100 µM	73.5	> 100	–	> 100	–	–	–	–	> 100	> 100
c1ccc(CCCN2C3CCC2CN(CCOC(c2ccccc2)c2ccccc2)C3)cc1	31.4	14.8	27	25.2 µM	–	26.9	–	33.7	–	28.4	–	–	20.8	25.7
O=[N+]([O-])C1=Cc2c(O)ccc(O)c2C2OC=CC12 (stereo unspecified)	35.2	43.8	45.4	–	29.4	32.2	–	61.6	–	30.2	–	–	49.5	25.8
CC(=O)Oc1ccc2c(c1)O/C(=C\c1ccc(N(C)C)cc1)C2=O	> 100	> 100	> 100	–	> 100	–	–	60.8	–	> 100	–	–	> 100	> 100
C[C@]12CC[C@H]3[C@@H](CC=C4C[C@@H](N5CCCC5)CC[C@@]43C)[C@@H]1C/C(=C\c1ccc([N+](=O)[O-])cc1)[C@@H]2O	32	27.4	28.2	32.1 µM	57.8	96.7	–	40.3	–	25.4	–	–	–	27.6
CSC(=Nc1ccccc1)c1c(C)[nH]n(-c2ccccc2)c1=O	–	> 100	–	> 100 µM	> 100	–	–	> 100	–	> 100	–	–	> 100	> 100
COC(=O)C12CCCN1CCC2	> 100	> 100	–	> 100 µM	> 100	> 100	–	–	–	> 100	–	–	> 100	> 100
Cc1cnoc1/N=C1\C=C(Nc2oncc2C)C(=O)c2ccccc21	> 100	> 100	> 100	> 100 µM	> 100	> 100	–	–	–	> 100	–	–	> 100	> 100
NC(=O)N/N=C(\Cc1cc(=O)oc2cc(O)ccc12)C(=O)Nc1ccccc1C(N)=O	> 100	> 100	> 100	–	> 100	> 100	–	> 100	–	> 100	–	–	> 100	> 100
CC1=C[C@H](C[C@]2(C)c3c(c4c(C)cccc4oc3=O)O[C@@H]2C)OC1=O	> 100	> 100	> 100	> 100 µM	–	> 100	–	> 100	–	–	–	–	> 100	> 100
Cc1cc(C)c2c(-c3ccccc3)cc(=O)[nH]c2c1	> 100	> 100	> 100	> 100 µM	> 100	> 100	–	> 100	–	> 100	–	–	> 100	–
COc1ccc(/C=C2\C(=O)N(C(=O)c3ccc(NC(C)=O)cc3)N=C2C)cc1OC	> 100	> 100	–	> 100 µM	–	> 100	–	–	–	> 100	–	–	> 100	> 100
CCN(CC)C1=Nc2ccccc2-n2ccnc2C1	> 100	> 100	> 100	–	> 100	> 100	–	> 100	–	> 100	–	–	> 100	> 100
Cc1cccc(-c2cc(=O)c3cccnc3[nH]2)c1	> 100	2.93	> 100	–	> 100	> 100	–	> 100	–	> 100	–	–	> 100	–
Fc1ccc(/C=C2\COCC3=C2NC(=S)NC3c2ccc(F)cc2)cc1 (stereo unspecified)	31.7	–	76.3	–	30.4	33.3	–	52.7	–	38.5	–	–	57.6	76.2
CC(C)(C)c1ccc(O)c(C(O)c2ccccn2)c1 (stereo unspecified)	> 100	> 100	–	> 100 µM	> 100	> 100	–	> 100	–	–	–	–	> 100	> 100
